Source: publication PMC6604316 (Virology Journal, 2019)
Where two headings read alike, the source gives them in different places.

Key:
[1] = tested on: NA protein of LPAI H7N9 virus, 292 K; conditions: cited from earlier work
[2] = biological target: NA of A/Texas/12/2007 (H3N2 119E) (Influenza A virus (A/Texas/12/2007(H3N2)), UniProt D1FVK3); experiment: biochemical; assay type: biochemical

Compound	fold increase in the IC50 [1]	IC50 ([2]; read-out: Mean IC50 (nM) ± SD) [nM]	IC50 [2] [nM]
oseltamivir carboxylate	more than 1000 fold	0.12 ± 0.01	
CC(=O)N[C@H]1[C@H]([C@H](O)[C@H](O)CO)OC(C(=O)O)=C[C@@H]1N=C(N)N [Zanamivir, zanamivir]	67 fold		1.71 ± 0.63
